In patent US20230303647A1, “CYCLIC CHEMERIN-9 DERIVATIVES” (priority 2020, published 2023):
Where a SMILES comes first, the peptide text is derived from it. Bridges are numbered along the chain shown (N, C = ends). [ ]: non-standard residue; d: D form. PEG4 = NCCOCCOCCOCCOCCC(=O)O; d(hCys) = N[C@H](CCS)C(=O)O

Key:
in vitro = conditions: human, plasma
Protocol: Investigation of peptide stability in blood plasma was carried out as described previously. […] Samples taken at the respective time points were added to a solution of 0.1% SDS in ACN/EtOH (1:1). After incubation at −20° C. for 20 min, the supernatant was transferred to a new tube and incubated again at −20° C. for at least 3 h. The solution was filtered by centrifugation using Costar Spin-X tubes (0.22 μm) and the filtrate was analyzed by RP-HPLC on a VariTide RPC. […] Peaks were integrated and the peak containing the intact peptide was normalized to the sample taken at t=0 min (100%).

CMKLR1 [1] = target: T1, CMKLR1 (Homo sapiens, UniProt Q99788); assay: BRET-based arrestin 3 recruitment assay
T1 sequence (Q99788 1-373): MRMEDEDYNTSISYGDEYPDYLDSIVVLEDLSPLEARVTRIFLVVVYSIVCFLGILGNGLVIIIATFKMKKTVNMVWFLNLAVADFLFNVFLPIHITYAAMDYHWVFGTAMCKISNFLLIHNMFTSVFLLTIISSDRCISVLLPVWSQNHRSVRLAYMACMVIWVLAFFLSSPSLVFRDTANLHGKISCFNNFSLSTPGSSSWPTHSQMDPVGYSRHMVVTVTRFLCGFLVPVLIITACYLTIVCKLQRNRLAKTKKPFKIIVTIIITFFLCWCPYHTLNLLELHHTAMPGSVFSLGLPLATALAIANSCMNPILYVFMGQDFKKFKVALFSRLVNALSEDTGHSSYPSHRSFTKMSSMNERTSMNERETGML
Protocol: HEK293 cells were transiently transfected using 75 cm^2 cell culture flasks with cell monolayers (confluency of ˜80%). Plasmid DNA of the C-terminally eYFP tagged human CMKLR1 and the chimeric G protein GαΔ6qi4myr in a pVitro2 vector (7.8 μg) and Renilla-luciferase 8-tagged Arrestin 3 in pcDNA3 (0.2 μg) and 24 μl MetafectenePro were separately added to 900 μl DMEM/Ham's F12 and incubated for 10 min before unification and incubation at RT for 20 min. […] The plasmid solution was added and cells were incubated overnight before seeding. Cell seeding was carried out in white 96-well polystyrene cell culture microplates, coated with poly-D lysine. […] Afterwards, the cells were incubated overnight at 37° C. The assay was performed under unsterile conditions. […] Afterwards, the cells were stimulated with the peptides in different concentrations (10^−5 to 10^−12 M) dissolved in BRET buffer. 50 μl of the peptide dilution were used for cell stimulation. Buffer without peptide was used as a negative control. […] The values of the negative control were subtracted, non-linear regression was calculated using GraphPad Prism. […] All measurements were performed in four technical replicates, all experiments were repeated at least twice.
The bioluminescence resonance energy transfer (BRET) assay was used to determine the potency of cyclic chemerin variants to recruit arrestin 3 to the CMKLR1 receptor after stimulation. HEK293 cells were transiently transfected with CMKLR1 receptor fused with eYFP fluorophore and Arrestin 3 tagged with Rluc8 luciferase. The transfected cells were seeded, incubated with the luciferase substrate coelenterazine-h and stimulated with different peptide concentrations, resulting in measurable BRET signals.

CMKLR1 [2] = target: T1, CMKLR1; assay: Ca2+ mobilization assay (G protein-mediated signaling)
Protocol: COS-7 cells were transfected in 75 cm^2 cell culture flasks with 12 μg of the hCMKLR1_eYFP_GαΔ6qi4myr_pV2 plasmid overnight using Metafectene Pro. Transfected cells were seeded in 96 well plates (100 μL cell suspension in DMEM+10% FBS/well) and incubated overnight. The following day, the Ca^2+-mobilization was performed as described previously. […] All experiments were performed in triplicates, each experiment was repeated at least twice. Nonlinear regression was calculated using GraphPad Prism 5.

CMKLR1 [3] = target: T1, CMKLR1; assay: Fluorescence microscopy of CMKLR1 internalization and arrestin 3 recruitment; type: cell-based; design: expressed in transfected cells; host or cells: HEK293; conditions: HEK293 cells, 1 μM peptide
Protocol: Ibidi 15μ-slides were coated with poly D-lysine before cell seeding. Cells were washed with DPBS prior to detachment with 1 ml trypsin/EDTA. […] The cell suspension was diluted to 140,000 cells/200 μl, which were seeded. Incubation was carried out overnight at 37° C. Afterwards, cells were transiently transfected. Plasmid DNA of hCMKLR1_eYFP_GαΔ6qi4myr_pV2 (0.9 μg) and mCherry_Arr3_pcDNA3 (0.1 μg) and 8 μl Lipofectamine were separately added to 100 μl DMEM/Ham's F12 and incubated for 10 min before unification and incubation at RT for 20 min. Incubation was carried out overnight at 37° C. […] The medium was replaced by 200 μl of OptiMEM and the to status was documented. The OptiMEM was then replaced by 200 μl of 1 μM peptide in OptiMEM. Fluorophore excitation was analyzed using different filters, depending on the emission wavelength of the fluorophore and the time of exposure was adjusted to each fluorophore individually. All images were processed identically with the AxioVision software (Carl Zeiss AG, Oberkochen, Germany).
To verify the arrestin-recruitment and analyze the internalization of the CMKLR1 receptor itself, HEK293 cells were used and transiently transfected with fluorescent labeled variants of the two molecules.
FIG. 2: Internalization of CMKLR1 and arrestin 3 recruitment. HEK293 cells expressing the hCMKLR1 (green) and arrestin 3 (Arr3; red) due to transient transfection were used for the internalization studies.

half-life (in vitro) [min]	arrestin 3 recruitment to the CMKLR1 (in words) (CMKLR1 [1]; BRET, compared with chemerin-9)	EC50 (CMKLR1 [1]; EC50, HEK293 cells, CMKLR1-eYFP and Rluc8-arrestin 3, 15 min after agonist addition) [nM]	Emax (CMKLR1 [1]; read-out: Emax [%] ± SEM) [%]	EC50 (CMKLR1 [2]) [nM]	arrestin 3 recruitment (CMKLR1 [3])	receptor internalization (CMKLR1 [3]; compared to chemerin-9)	SMILES
< 12	–	–	–	–	–	–	C[C@H](NC(=O)[C@H](Cc1ccccc1)NC(=O)[C@H](CCC(N)=O)NC(=O)CNC(=O)[C@@H]1CCCN1C(=O)[C@H](Cc1ccccc1)NC(=O)[C@H](Cc1ccc(O)cc1)NC(=O)c1ccc(C(=O)O)c(-c2c3ccc(=[N+](C)C)cc-3oc3cc(N(C)C)ccc23)c1)C(=O)N[C@@H](Cc1ccccc1)C(=O)N[C@@H](CO)C(=O)O [$$ 2, Tam-chemerin-9]
–	accepted	418	69 ± 8	193	good arrestin 3 recruitment	slightly lower receptor internalization	C[C@@H]1NC(=O)[C@H](Cc2ccccc2)NC(=O)[C@H](CCC(N)=O)NC(=O)[C@H](NC(=O)[C@@H]2CCCN2C(=O)[C@H](Cc2ccccc2)NC(=O)[C@H](Cc2ccc(O)cc2)NC(=O)CCOCCOCCOCCOCCN)CCSSC[C@@H](C(=O)O)NC(=O)[C@H](Cc2c[nH]c3ccccc23)NC1=O [$$ 18, EG4-[x4,W8,C9]-chemerin-9] (H-[PEG4]YFP[d(hCys)]QFAWC-OH; disulfide 5-10)
